This is an account of results in US20240239752A1, “BICYCLIC HETEROAROMATIC INHIBITORS OF KLK5” (BioCryst Pharmaceuticals, Inc., priority 2021, published 2024).

The target in the experiment is T1, recombinant human KLK5 (Homo sapiens, UniProt Q9Y337).
T1 construct: purchased Novoprotein or R&D Systems C415 or 1108-SE
T1 sequence (Q9Y337 23-293): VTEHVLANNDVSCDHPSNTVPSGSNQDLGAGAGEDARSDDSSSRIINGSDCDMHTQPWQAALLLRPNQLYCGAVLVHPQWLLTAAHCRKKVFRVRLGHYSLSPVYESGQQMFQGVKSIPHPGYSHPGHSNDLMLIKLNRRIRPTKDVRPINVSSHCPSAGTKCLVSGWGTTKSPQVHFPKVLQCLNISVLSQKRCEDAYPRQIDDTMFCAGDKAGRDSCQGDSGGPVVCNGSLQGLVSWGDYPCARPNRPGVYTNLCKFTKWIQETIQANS
Briefly: Kallikrein (KLK) 5 enzymatic assay (Boc-VPR-AMC fluorogenic substrate). The class given is biochemical. The conditions noted are these: recombinant human KLK5 0.1 μg/well, Boc-VPR-AMC 100 μM, pH 7.5, room temperature, 1% DMSO; tested a minimum of three times. The method in brief:
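Fluorogenic rate assay at pH 7.5 (0.1 M NaH2PO4, 1% DMSO, room temperature), run at least three times per compound. Compound was premixed with 0.1 μg/well recombinant human KLK5 before adding 100 μM Boc-VPR-AMC; AMC release was read at ex 380/em 460 nm, and IC50 derived from inhibition of rate vs DMSO control.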

Usually IC50 stands for the concentration at which inhibition is half-maximal. Consider `Nc1nccc2c(-c3ccc4c(c3)c(COc3ccccc3CC(=O)O)nn4C3CC3)cccc12` [Compound 65b, 2-(2-((5-(1-aminoisoquinolin-5-yl)-1-cyclopropyl-1H-indazol-3-yl)methoxy)phenyl)acetic acid], for which the IC50 was under 1 µM. As for `COc1ccc(CC(=O)O)c(OCc2nn(C3CC3)c3ccc(-c4ccc5ccnc(N)c5c4)cc23)c1` [Compound 66e, 2-(2-((5-(1-aminoisoquinolin-7-yl)-1-cyclopropyl-1H-indazol-3-yl)methoxy)-4-methoxyphenyl)acetic acid], the IC50 was under 1 µM. `CC(C)n1nc(COc2ccccc2CC(=O)O)c2cc(-c3ccc4c(N)n[nH]c4c3)ccc21` [Compound 67c, 2-(2-((3′-amino-1-isopropyl-1H, 1′H-[5,6′-biindazol]-3-yl)methoxy)phenyl)acetic acid]: the IC50 was over 10 µM.

Regarding `CC(C)n1nc(COc2ccccc2CC(=O)O)c2cc(-c3cnc4[nH]nc(N)c4c3)ccc21` [Compound 68c, 2-(2-((5-(3-amino-1H-pyrazolo[3,4-b]pyridin-5-yl)-1-isopropyl-1H-indazol-3-yl)methoxy)phenyl)acetic acid], the IC50 is over 10 µM.

With `Nc1nccc2c(-c3ccc4c(c3)c(COc3ccccc3CC(=O)O)nn4C3CCC3)cccc12` [Compound 69b, 2-(2-((5-(1-aminoisoquinolin-5-yl)-1-cyclobutyl-1H-indazol-3-yl)methoxy)phenyl)acetic acid], the concentration for half-maximal inhibition (IC50) was under 1 µM.

In the case of `CC(C)n1nc(COc2ccccc2CC(=O)O)c2cc(-c3ccc4cccc(N)c4c3)ccc21` [Compound 70c, 2-(2-((5-(8-aminonaphthalen-2-yl)-1-isopropyl-1H-indazol-3-yl)methoxy)phenyl)acetic acid], the IC50 was over 10 µM. Regarding `COc1ccc(CC(=O)O)c(OCc2nn(C)c3ccc(-c4ccc5ccnc(N)c5c4)cc23)c1` [Compound 71d, 2-(2-((5-(1-aminoisoquinolin-7-yl)-1-methyl-1H-indazol-3-yl)methoxy)-4-methoxyphenyl)acetic acid], the 50% inhibitory concentration (IC50) was under 1 µM.

Take `COc1ccc(CC(=O)O)c(OCc2nn(C)c3ccc(-c4cccc5c(N)nccc45)cc23)c1` [Compound 72b, 2-(2-((5-(1-aminoisoquinolin-5-yl)-1-methyl-1H-indazol-3-yl)methoxy)-4-methoxyphenyl)acetic acid]: the IC50 was under 1 µM. As for `COc1ncc(N)c2cc(-c3ccc4c(c3)c(COc3ccccc3CC(=O)O)nn4C(C)C)ccc12` [Compound 73d, 2-(2-((5-(4-amino-1-methoxyisoquinolin-6-yl)-1-isopropyl-1H-indazol-3-yl)methoxy)phenyl)acetic acid], the figure is over 10 µM; as for `COc1cnc(N)c2cc(-c3ccc4c(c3)c(COc3ccccc3CC(=O)O)nn4C(C)C)ccc12` [Compound 74d, 2-(2-((5-(1-amino-4-methoxyisoquinolin-7-yl)-1-isopropyl-1H-indazol-3-yl)methoxy)phenyl)acetic acid], 1 to 10 µM; as for `CC(C)n1nc(COc2ccccc2CC(=O)O)c2cc(-c3ccc4cnc(N)cc4c3)ccc21` [Compound 75c, 2-(2-((5-(3-aminoisoquinolin-6-yl)-1-isopropyl-1H-indazol-3-yl)methoxy)phenyl)acetic acid], over 10 µM. Regarding `CC(C)n1nc(COc2ccccc2CC(=O)O)c2cc(-c3ccc4c(c3)C(N)CO4)ccc21` (stereo not drawn) [Compound 76c, 2-(2-((5-(3-amino-2,3-dihydrobenzofuran-5-yl)-1-isopropyl-1H-indazol-3-yl)methoxy)phenyl)acetic acid], the IC50 was over 10 µM. As for `CC(C)n1nc(COc2ccccc2CC(=O)O)c2cc(-c3ccc4c(c3)C(O)CC4)ccc21` (stereo not drawn) [Compound 77c, 2-(2-((5-(3-hydroxy-2,3-dihydro-1H-inden-5-yl)-1-isopropyl-1H-indazol-3-yl)methoxy)phenyl)acetic acid], the figure is over 10 µM; as for `Cc1ccc2c(N)nccc2c1-c1ccc2c(c1)c(COc1ccccc1CC(=O)O)nn2C(C)C` [Compound 78d, 2-(2-((5-(1-amino-6-methylisoquinolin-5-yl)-1-isopropyl-1H-indazol-3-yl)methoxy)phenyl)acetic acid], 1 to 10 µM. As for `CC(C)n1nc(COc2ccccc2CC(=O)O)c2cc(-c3ccc4c(c3)[C@H](N)CO4)ccc21` [Compound 79c, (S)-2-(2-((5-(3-amino-2,3-dihydrobenzofuran-5-yl)-1-isopropyl-1H-indazol-3-yl)methoxy)phenyl)acetic acid], the figure is over 10 µM; as for `CC(C)n1nc(COc2ccccc2CC(=O)O)c2cc(-c3ccnc4c(N)nccc34)ccc21` [Compound 80d, 2-(2-((5-(8-amino-1,7-naphthyridin-4-yl)-1-isopropyl-1H-indazol-3-yl)methoxy)phenyl)acetic acid], 1 to 10 µM; as for `COc1c(-c2ccc3c(c2)c(COc2ccccc2CC(=O)O)nn3C(C)C)ccnc1C(=N)N` [Compound 81d, 2-(2-((5-(2-carbamimidoyl-3-methoxypyridin-4-yl)-1-isopropyl-1H-indazol-3-yl)methoxy)phenyl)acetic acid], under 1 µM. Regarding `COc1cc(C(=N)N)cc(-c2ccc3c(c2)c(COc2ccccc2CC(=O)O)nn3C(C)C)c1` [Compound 82e, 2-(2-((5-(3-carbamimidoyl-5-methoxyphenyl)-1-isopropyl-1H-indazol-3-yl)methoxy)phenyl)acetic acid], the IC50 is over 10 µM.

In the case of `COc1ccc(C(=N)N)cc1-c1ccc2c(c1)c(COc1ccccc1CC(=O)O)nn2C(C)C` [Compound 83e, 2-(2-((5-(5-carbamimidoyl-2-methoxyphenyl)-1-isopropyl-1H-indazol-3-yl)methoxy)phenyl)acetic acid], the half-maximal inhibitory concentration (IC50) lay within 1 to 10 µM.

For the compound `COc1c(C(=N)N)cccc1-c1ccc2c(c1)c(COc1ccccc1CC(=O)O)nn2C(C)C` [Compound 84f, 2-(2-((5-(3-carbamimidoyl-2-methoxyphenyl)-1-isopropyl-1H-indazol-3-yl)methoxy)phenyl)acetic acid], the IC50 is under 1 µM.

`CC(C)n1nc(COc2ccccc2CC(=O)O)c2cc(-c3cccc(-c4cn[nH]c4)c3)ccc21` [Compound 85c, 2-(2-((5-(3-(1H-pyrazol-4-yl)phenyl)-1-isopropyl-1H-indazol-3-yl)methoxy)phenyl)acetic acid]: the IC50 is over 10 µM. As for `CC(C)(C)OC(=O)N1CCC(n2nc(COc3ccccc3CC(=O)O)c3cc(-c4cccc5c(N)nccc45)ccc32)C1` (stereo not drawn) [Compound 86h, 2-(2-((5-(1-aminoisoquinolin-5-yl)-1-(1-(tert-butoxycarbonyl)pyrrolidin-3-yl)-1H-indazol-3-yl)methoxy)phenyl)acetic acid], the figure is under 1 µM. Consider `CC(C)(C)OC(=O)N1CCC(n2nc(COc3ccccc3CC(=O)O)c3cc(-c4ccc5ccnc(N)c5c4)ccc32)C1` (stereo not drawn) [Compound 87c, 2-(2-((5-(1-aminoisoquinolin-7-yl)-1-(1-(tert-butoxycarbonyl)pyrrolidin-3-yl)-1H-indazol-3-yl)methoxy)phenyl)acetic acid], for which the IC50 is under 1 µM. As for `Nc1nccc2c(-c3ccc4c(c3)c(COc3ccccc3CC(=O)O)nn4CC3CCOC3)cccc12` (stereo not drawn) [Compound 88h, 2-(2-((5-(1-aminoisoquinolin-5-yl)-1-((tetrahydrofuran-3-yl)methyl)-1H-indazol-3-yl)methoxy)phenyl)acetic acid], the figure is under 1 µM.
